In US20140228540A1, “POLYPEPTIDES THAT BIND TISSUE INHIBITOR OF METALLOPROTEINASE TYPE THREE (TIMP-3), COMPOSITIONS AND METHODS” (Amgen Inc., priority 2009, published 2014):
Like-named read-outs stand apart in the source and are kept apart here.

How the values were obtained:
TIMP-3 = test: Binding ELISA of LRP-1 peptides to TIMP-3 (Table 2; format and species not specified); parameters: species or system human or mouse
[1] = system: biotinylated recombinant human or mouse TIMP-3; test: TIMP-3 AlphaScreen binding assay
Protocol: Peptides were also evaluated by AlphaScreen® (Amplified Luminescent Proximity Homogeneous Assay; PerkinElmer, Waltham, Mass.) a very sensitive non-radioactive homogeneous assay technology that allows the screening of a large range of biological interactions and activities, substantially according to the manufacturer's instructions. Briefly, all dilutions are made in AlphaScreen® Buffer: [40 mM HEPES pH 7.5, 100 mM NaCl, 1 mM CaCl2, 0.1% BSA, 0.05% Tween-20]. The LRP-1 peptides are titrated in a separate polypropylene 96-well plate (Falcon) starting at 4 microM concentration and then diluted serially 3-fold for 12-points, with the last point buffer only. First 2 microL/well of protein titration curve is added to white, small volume, 384-well assay plate (Greiner Bio-One, Stonehouse, UK) in duplicate. Next, 2 microL of biotinylated (AFS, in-house conjmicroGation) recombinant human or mouse TIMP-3, is added at 12 nM (or 3 nM final assay concentration) to the assay plate. Lastly, in subdued light 4 microL of a mixture of streptavidin donor beads, anti-mouse IgG acceptor beads (PerkinElmer) both diluted to 20 microG/mL (10 microG/mL final assay concentration) and 2 nM (1 nM final concentration) rat-anti-HA (clone3F10)-HRP (Roche Diagnostics) is added to the plates. Plates containing 8 microL final assay volume are covered with TopSeal A (to prevent evaporation), spun quickly at 1000 rpm, and incubated overnight (covered with foil to prevent light exposure) before reading on Fusion plate reader (PerkinElmer) using AlphaScreen® parameters (excitation 680 nm and emission 520-620 nm). Data is analyzed using GraphPad Prism 4.01 software. Binding to TIMP-3 is reported as total signal (cps).

HTB-94 cells = test: Accumulation of TIMP-3 in the medium of cultured HTB-94 cells; assay type: cell-based
Protocol: This example describes an assay to evaluate the accumulation of TIMP-3 in the medium of cultured cells. HTB-94™ cells (a chondrocytic cell line available from the American Type Culture Collection, Manassas, Va.) are plated to 24-well tissue culture plates at 1×10̂5 cells per well in 1 ml growth medium (RPM11640, 10% FBS, 1% PSG), and incubated at 37 C, 5% CO2 overnight. The cells are then washed once with PBS, and the wells are replenished with 250 microL serum-free medium (RPM11640, 1% PSG; designated SF in the tables below) to which is added the polypeptide being tested or a control (for example medium containing heparin, 1 mg/ml). Proteins to be tested are diluted to appropriate concentrations, for example as shown in the Tables below, and added to the cells. Cells are then incubated at 37 C, 5% CO2 for two additional days, day 2 conditioned medium (CM) samples are collected and clarified by centrifugation (i.e., for 5 minutes at 10K RPM) and the supernatant fluid is collected and stored at −20 C until assayed. Analysis is done on 100 microL CM samples, either by Western blot or by using a standard human TIMP-3 ELISA as per the manufacturer's protocol (R&D Systems Inc., Minneapolis, Minn.).

[2] = Assay 2, read-out: Binding ELISA EC50 (nm) Assay 2
[3] = Assay 1, read-out: Binding ELISA EC50 (nm) Assay 1

AlphaScreen total signal (cps) Assay 1 [1] | AlphaScreen total signal (cps) Assay 2 [1] | Molecule | TIMP-3 (ng/ml) in conditioned medium (HTB-94 cells; Table 6, peptides 2 microM) [ng/mL] | TIMP-3 (ng/ml) in conditioned medium (HTB-94 cells; Table 7, peptides 2 microM) [ng/mL] | other results
2,200 cps |  | LA18: LRP-1 peptide monomer, amino acids 2818-2857 | 1.11 |  | EC50 (TIMP-3; [2]): > 10 µM
2,200 cps | 2,000 cps | LA24: LRP-1 peptide monomer, amino acids 3453-3493 | 0.41 |  | 
2,200 cps |  | LA26: LRP-1 peptide monomer, amino acids 3536-3574 |  | 1.01 | 
2,200 cps |  | LA21: LRP-1 peptide monomer, amino acids 3334-3373 | 1.82 |  | 
2,200 cps | 2,000 cps | LA23-24: LRP-1 peptide multimer, amino acids 3413-3493 |  | 1.38 | 
3,000 cps |  | LA21-23: LRP-1 peptide multimer, amino acids 3334- (end not printed) |  | 4.46 | EC50 (TIMP-3; [3]): 0.243 µM
2,200 cps |  | LA20: LRP-1 peptide monomer, amino acids 2904-2943 (CNASSQFLCSSGRCVAEALLCNGQDDCGDSSDERGCHINE) | 0.96 |  | EC50 (TIMP-3; [2]): > 10 µM
5,000 cps | 2,000 cps | LA25: LRP-1 peptide monomer, amino acids 3494-3535 |  | 1.24 | 
4,000 cps | 9,000 cps | LA3-5: LRP-1 peptide multimer, amino acids 854-975 |  | 4.22 | 
2,200 cps | 2,000 cps | LA4-5: LRP-1 peptide multimer, amino acids 895-975 |  | 2.68 | 
150,000 cps | 120,000 cps | LA24-26: LRP-1 peptide multimer, amino acids 3453- (end not printed) |  | 10.38 | 
 |  | Cluster III: LRP-1 peptide, amino acids 2524- (end not printed) |  |  | Accumulation of TIMP-3 in conditioned medium by Western blot (HTB-94 cells): did not result in significant accumulation
290,000 cps | 130,000 cps | LA24-25: LRP-1 peptide multimer, amino acids 3453-3535 |  | 2.48 | 
2,200 cps |  | LA6: LRP-1 peptide monomer, amino acids 976-1014 | 1.07 |  | 
2,200 cps |  | LA17: LRP-1 peptide monomer, amino acids 2774-2817 | 1.06 |  | EC50 (TIMP-3; [2]): > 5 µM
2,200 cps |  | LA16: LRP-1 peptide monomer, amino acids 2734-2773 | 0.94 |  | 
3,000 cps |  | LA18-20: LRP-1 peptide multimer, amino acids 2818- (end not printed) |  |  | EC50 (TIMP-3; [3]): ~0.3 µM
9,000 cps | 3,500 cps | LA3-4: LRP-1 peptide multimer, amino acids 854-930 |  |  | 
2,200 cps | 2,000 cps | LA3: LRP-1 peptide monomer, amino acids 854-894 | 0.60 |  | 
20,000 cps | 5,000 cps | LA25-26: LRP-1 peptide multimer, amino acids printed as 3594-3574 |  | 9.30 | 
2,000 cps | 8,000 cps | LA5-7: LRP-1 peptide multimer, amino acids 931-1061 |  |  | 
2,200 cps |  | LA27: LRP-1 peptide monomer, amino acids 3575-3612 |  | 0.65 | 
2,200 cps |  | LA23: LRP-1 peptide monomer, amino acids 3413-3452 | 0.87 |  | EC50 (TIMP-3; [2]): > 5 µM
2,200 cps |  | LA22: LRP-1 peptide monomer, amino acids 3374-3412 | 0.96 |  | 
2,200 cps |  | LA19: LRP-1 peptide monomer, amino acids 2858-2903 | 1.06 |  | EC50 (TIMP-3; [2]): > 10 µM
 | 100,000 cps | LA3-10: LRP-1 peptide multimer, not listed in Table 1 (protein) CQPGEFACANSRCIQERWKCDGDNDCLDNSDEAPALCHQHTCPSDRFKCENNRCIPNRWLCDGDNDCGNSEDESNATCSARTCPPNQFSCASGRCIPISWTCDLDDDCGDRSDESASCAYPTCFPLTQFTCNNGRCININWRCDNDNDCGDNSDEAGCSHSCSSTQFKCNSGRCIPEHWTCDGDNDCGDYSDETHANCTNQATRPPGGCHTDEFQCRLDGLCIPLRWRCDGDTDCMDSSDEKSCEGVTHVCDPSVKFGCKDSARCISKAWVCDGDNDCEDNSDEENCESLACRPPSHPCANNTSVCLPPDKLCDGNDDCGDGSDEGELCDQ |  |  | EC50 (TIMP-3; [3]): 0.0455 µM; EC50 (TIMP-3; Assay 3, read-out: Binding ELISA EC50 (nm) Assay 3): 0.0325 µM
1,200 cps |  | LA13-15: LRP-1 peptide multimer, amino acids 2605- (end not printed) (protein) CGVGEFRCRDGTCIGNSSRCNQFVDCEDASDEMNCSATDCSSYFRLGVKGVLFQPCERTSLCYAPSWVCDGANDCGDYSDERDCPGVKRPRCPLNYFACPSGRCIPMSWTCDKEDDCEHGEDETHCNKF |  |  | 
90,000 cps | 70,000 cps | LA15-17: LRP-1 peptide multimer, amino acids 2696- (end not printed) (protein) CPLNYFACPSGRCIPMSWTCDKEDDCEHGEDETHCNKFCSEAQFECQNHRCISKQWLCDGSDDCGDGSDEAAHCEGKTCGPSSFSCPGTHVCVPERWLCDGDKDCADGADESIAAGCLYNST |  | 4.70 | 
 |  | Cluster I: LRP-1 peptide, amino acids 27-114 of LRP-1 (SEQ ID NO:1) (protein, listed as Homo sapiens) CSPKQFACRDQITCISKGWRCDGERDCPDGSDEAPEICPQSKAQRCQPNEHNCLGTELCVPMSRLCNGVQDCMDGSDEGPHCRELQGN | 0.65 | 0.87 | TIMP-3 (ng/ml) in conditioned medium (HTB-94 cells; Table 5, polypeptide 0.5 microM): 1.02 ng/mL; TIMP-3 (ng/ml) in conditioned medium (HTB-94 cells; Table 5, polypeptide 1 microM): 0.86 ng/mL; TIMP-3 (ng/ml) in conditioned medium (HTB-94 cells; Table 5, polypeptide 2 microM): 0.81 ng/mL; TIMP-3 (ng/ml) in conditioned medium (HTB-94 cells; Table 8, polypeptide 0.5 microM): 1.41 ng/mL; TIMP-3 (ng/ml) in conditioned medium (HTB-94 cells; Table 8, polypeptide 1 microM): 1.19 ng/mL; TIMP-3 (ng/ml) in conditioned medium (HTB-94 cells; Table 8, polypeptide 2 microM): 1.44 ng/mL; Accumulation of TIMP-3 in conditioned medium by Western blot (HTB-94 cells): did not result in significant accumulation
